How the values were obtained:
[1] = test system: TGF-β1-induced fibronectin mRNA; conditions: cited from earlier work
[2] = test system: TGF-β1-induced collagen Iα1 mRNA; conditions: cited from earlier work
[3] = biological target: T1, nodal type I receptor ALK7 (Homo sapiens, UniProt Q8NER5); conditions: cited from earlier work
T1 sequence (Q8NER5 21-493): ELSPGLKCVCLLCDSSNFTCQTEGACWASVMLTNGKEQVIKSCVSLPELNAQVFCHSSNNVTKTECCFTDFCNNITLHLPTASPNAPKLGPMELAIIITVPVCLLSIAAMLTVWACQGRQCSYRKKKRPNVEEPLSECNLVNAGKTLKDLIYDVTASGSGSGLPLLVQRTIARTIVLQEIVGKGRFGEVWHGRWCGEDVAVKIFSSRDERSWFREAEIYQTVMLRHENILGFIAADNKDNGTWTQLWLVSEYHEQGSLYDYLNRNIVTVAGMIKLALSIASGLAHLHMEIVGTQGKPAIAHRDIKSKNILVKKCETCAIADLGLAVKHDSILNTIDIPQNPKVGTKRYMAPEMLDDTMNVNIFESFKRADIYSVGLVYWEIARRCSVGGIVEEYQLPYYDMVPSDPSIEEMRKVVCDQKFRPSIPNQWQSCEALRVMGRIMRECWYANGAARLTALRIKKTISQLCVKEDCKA

[4] = test system: TGF-β1-induced fibronectin protein; conditions: cited from earlier work
[5] = test system: TGF-β1-induced PAI-1 mRNA; conditions: cited from earlier work
[6] = TGF-β1 release from NP patches in PBS (Micro BCA); type: physicochemical; conditions: in vitro
Procedure: Pericardial patches were covalently modified using NP loaded with TGF-β1. TGF-β1 (4 μg) was dissolved in PBS (200 μL) and added to chloroform (2 mL) containing carboxylated poly(lactic-coglycolic acid) (PLGA) (100 mg). The mixture was then added drop-wise to 5% polyvinyl alcohol (PVA) (4 mL) and sonicated three times to form NP. The NP were dispersed in 0.2% PVA solution (200 mL) to evaporate the solvent for 2 h while stirring (40 ng TGF-β1/mg NP, […]). Patches (7 mm×5 mm) were conjugated with the NP using ethyl (dimethylaminopropyl) carbodiimide/N-hydroxysuccinimide (EDC/NHS) chemistry, as discussed above. EDC (20 μmol/mL) and NHS (10 μmol/mL) were dissolved in MES solution (0.1 M; pH 5) for the conjugation. Carboxyl groups on the NP were activated using EDC (1 mL) for 30 min and substituted with NHS by adding NHS (1 mL) for 30 min. The solution pH was raised from 5 to 8 using NaOH (1 M). Patches were then placed into the activated NP suspension and incubated at 37° C. overnight. To assess TGF-β1 release from NP patches in vitro, the patches were incubated in PBS at 37° C. The supernatant was collected at the desired time points and used to quantify TGF-β1 using a Micro BCA Protein Assay Kit (Thermo Fisher Scientific).

Compound	IC50 [1] [nM]	IC50 [2] [nM]	inhibition of ALK7 [3]	IC50 [4] [nM]	IC50 [5] [nM]	duration of sustained release of TGF-β1 [6]	period in which cumulative release was highest (first days) [6] [days]	time until which release slowly decreased [6] [days]
NC(=O)c1ccc(-c2nc(-c3ccc4c(c3)OCO4)c(-c3ccccn3)[nH]2)cc1 [SB 431542]	62	60	inhibits	22	50			
TGF β1: polypeptide member of the transforming growth factor beta superfamily of cytokines						2-3 weeks	5	21
